# Experimental data published in patent publication US8404679B2, “Pyrrolidine derivatives as NK2 receptor antagonists” (Hoffmann-La Roche Inc., priority 2008, dated 2013).
# pKi: −log10 of the molar value.
# Biological target: T1, human NK2 receptor (Homo sapiens, UniProt P21452)
# T1 construct: purchased Perkin Elmer biosignal Inc. 6110510
# T1 sequence (P21452 1-398): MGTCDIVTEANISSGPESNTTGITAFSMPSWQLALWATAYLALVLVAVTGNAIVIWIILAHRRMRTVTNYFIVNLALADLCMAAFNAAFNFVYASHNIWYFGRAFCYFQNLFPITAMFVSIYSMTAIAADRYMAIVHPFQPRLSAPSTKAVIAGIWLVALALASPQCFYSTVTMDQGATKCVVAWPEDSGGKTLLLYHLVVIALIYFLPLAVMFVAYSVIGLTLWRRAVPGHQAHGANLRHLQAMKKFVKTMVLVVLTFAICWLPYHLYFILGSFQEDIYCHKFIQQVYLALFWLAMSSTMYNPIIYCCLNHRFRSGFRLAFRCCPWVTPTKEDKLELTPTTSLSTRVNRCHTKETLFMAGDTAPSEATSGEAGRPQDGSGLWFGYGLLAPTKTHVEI
# Assay: [3H]SR48968 competition binding assay
# Conditions: [3H]SR48968 displacement, membranes of CHO cells stably expressing recombinant human NK2 receptor; Ki from IC50 by Cheng-Prussoff
# Experimental: [^3H]SR48968 Competition Binding Assay
# hNK2 receptor binding experiment were performed using [^3H]SR48968 (Catalog No. TRK398, specific activity: 27.0 Ci/mmol, Amersham, GE Healthcare UK limited, Buckinghamshire, UK) and membrane isolated from CHO cells stably expressing recombinant human NK2 receptor (product No. 6110510, Perkin Elmer biosignal Inc., Shelton, Conn., USA). After thawing, the membrane homogenates were centrifuged at 48,000×g for 10 min at 4° C., the pellets were resuspended in the 50 mM Tris-HCl, 3 mM MnCl2, 4 μg/mL Chymostatin, 0.04% BSA binding buffer at pH 7.4 to a final assay concentration of 6.5 μg protein/well. For inhibition experiments, membranes were incubated with [^3H]SR48968 at a concentration equal to KD value of radioligand and 10 concentrations of the inhibitory compound (0.0003-10 μM) (in a total reaction volume of 500 μl) for 75 min at room temperature (RT). At the end of the incubation, membranes were filtered onto unitfilter (96-well white microplate with bonded GF/C filter preincubated 1 h in 0.3% polyethylenimine, Packard BioScience, Meriden, Conn.) with a Filtermate 196 harvester (Packard BioScience) and washed 4 times with ice-cold 50 mM Tris-HCl, pH 7.4 buffer. Nonspecific binding was measured in the presence of 10 μM 1-{2-[(R)-3-(3,4-dichloro-phenyl)-1-(3,4,5-trimethoxy-benzoyl)-pyrrolidin-3-yl]-ethyl}-4-phenyl-piperidine-4-carboxylic acid amide. The radioactivity on the filter was counted (5 min) on a Packard Top-count microplate scintillation counter with quenching correction after addition of 45 μl of microscint 40 (Canberra Packard S. A., Zürich, Switzerland) and shaking for 1 h. Inhibition curves were fitted according to the Hill equation: y=100/(1+(x/IC50)^nH), where nH=slope factor using Excel-fit 4 software (Microsoft). IC50 values were derived from the inhibition curve and the affinity constant (Ki) values were calculated using the Cheng-Prussoff equation Ki=IC50/(1+[L]/KD) where [L] was the concentration of radioligand and KD was its dissociation constant at the receptor, derived from the saturation isotherm.
row,SMILES,pKi
1,"COc1ccc(C(=O)N(C)[C@@H]2CN(C(=O)N3CCN(S(C)(=O)=O)CC3)C[C@H]2c2ccc(Cl)cc2)cc1C(F)(F)F (racemic) [Example 6, rac-N-[(3S,4R)-4-(4-Chloro-phenyl)-1-(4-methanesulfonyl-piperazine-1-carbonyl)-pyrrolidin-3-yl]-4-methoxy-N-methyl-3-trifluoromethyl-benzamide]",7.97
2,"CN(C(=O)c1cccc(C(F)(F)F)c1)[C@@H]1CN(C(=O)N2CCN(S(C)(=O)=O)CC2)C[C@H]1c1ccc(Cl)cc1 (racemic) [Example 7, rac-N-[(3S,4R)-4-(4-Chloro-phenyl)-1-(4-methanesulfonyl-piperazine-1-carbonyl)-pyrrolidin-3-yl]-N-methyl-3-trifluoromethyl-benzamide]",7.47
3,"COc1ccc(C(=O)N(C)[C@@H]2CN(C(=O)N3CCN(S(C)(=O)=O)CC3)C[C@H]2c2ccc(Cl)c(Cl)c2)cc1C(F)(F)F (racemic) [Example 8, rac-N-[(3S,4R)-4-(3,4-Dichloro-phenyl)-1-(4-methanesulfonyl-piperazine-1-carbonyl)-pyrrolidin-3-yl]-4-methoxy-N-methyl-3-trifluoromethyl-benzamide]",8.63
4,"CN(C(=O)c1cccc(C#N)c1)[C@@H]1CN(C(=O)N2CCN(S(C)(=O)=O)CC2)C[C@H]1c1ccc(Cl)c(Cl)c1 (racemic) [Example 15, rac-3-Cyano-N-[(3S,4R)-4-(3,4-dichloro-phenyl)-1-(4-methanesulfonyl-piperazine-1-carbonyl)-pyrrolidin-3-yl]-N-methyl-benzamide]",7.19
5,"CN(C(=O)c1cc(F)cc(C(F)(F)F)c1)[C@@H]1CN(C(=O)N2CCN(S(C)(=O)=O)CC2)C[C@H]1c1ccc(Cl)c(Cl)c1 (racemic) [Example 18, rac-N-[(3S,4R)-4-(3,4-Dichloro-phenyl)-1-(4-methanesulfonyl-piperazine-1-carbonyl)-pyrrolidin-3-yl]-3-fluoro-N-methyl-5-trifluoromethyl-benzamide]",7.68
6,"CN(C(=O)c1ccc(C(F)(F)F)c(F)c1)[C@@H]1CN(C(=O)N2CCN(S(C)(=O)=O)CC2)C[C@H]1c1ccc(Cl)c(Cl)c1 (racemic) [Example 20, rac-N-[(3S,4R)-4-(3,4-Dichloro-phenyl)-1-(4-methanesulfonyl-piperazine-1-carbonyl)-pyrrolidin-3-yl]-3-fluoro-N-methyl-4-trifluoromethyl-benzamide]",8.61
7,"CN(C(=O)c1cccc(Cl)c1F)[C@@H]1CN(C(=O)N2CCN(S(C)(=O)=O)CC2)C[C@H]1c1ccc(Cl)c(Cl)c1 (racemic) [Example 21, rac-3-Chloro-N-[(3S,4R)-4-(3,4-dichloro-phenyl)-1-(4-methanesulfonyl-piperazine-1-carbonyl)-pyrrolidin-3-yl]-2-fluoro-N-methyl-benzamide]",7.88
8,"CN(C(=O)c1cccc(C(F)(F)F)c1F)[C@@H]1CN(C(=O)N2CCN(S(C)(=O)=O)CC2)C[C@H]1c1ccc(Cl)c(Cl)c1 (racemic) [Example 22, rac-N-[(3S,4R)-4-(3,4-Dichloro-phenyl)-1-(4-methanesulfonyl-piperazine-1-carbonyl)-pyrrolidin-3-yl]-2-fluoro-N-methyl-3-trifluoromethyl-benzamide]",8.33

# Further lines, results first:
row,pKi,SMILES
1,7.06,"CN(C(=O)c1ccccc1)[C@@H]1CN(C(=O)N2CCN(S(C)(=O)=O)CC2)C[C@H]1c1ccc(Cl)c(Cl)c1 (racemic) [Example 9, rac-N-[(3S,4R)-4-(3,4-Dichloro-phenyl)-1-(4-methanesulfonyl-piperazine-1-carbonyl)-pyrrolidin-3-yl]-N-methyl-benzamide]"
2,7.54,"CN(C(=O)c1ccc(F)cc1)[C@@H]1CN(C(=O)N2CCN(S(C)(=O)=O)CC2)C[C@H]1c1ccc(Cl)c(Cl)c1 (racemic) [Example 10, rac-N-[(3S,4R)-4-(3,4-Dichloro-phenyl)-1-(4-methanesulfonyl-piperazine-1-carbonyl)-pyrrolidin-3-yl]-4-fluoro-N-methyl-benzamide]"
3,7.84,"CN(C(=O)c1cccc(Cl)c1)[C@@H]1CN(C(=O)N2CCN(S(C)(=O)=O)CC2)C[C@H]1c1ccc(Cl)c(Cl)c1 (racemic) [Example 11, rac-3-Chloro-N-[(3S,4R)-4-(3,4-dichloro-phenyl)-1-(4-methanesulfonyl-piperazine-1-carbonyl)-pyrrolidin-3-yl]-N-methyl-benzamide]"
4,8.56,"CN(C(=O)c1ccc(Cl)cc1)[C@@H]1CN(C(=O)N2CCN(S(C)(=O)=O)CC2)C[C@H]1c1ccc(Cl)c(Cl)c1 (racemic) [Example 12, rac-4-Chloro-N-[(3S,4R)-4-(3,4-dichloro-phenyl)-1-(4-methanesulfonyl-piperazine-1-carbonyl)-pyrrolidin-3-yl]-N-methyl-benzamide]"
5,7.63,"CN(C(=O)c1ccc(C#N)cc1)[C@@H]1CN(C(=O)N2CCN(S(C)(=O)=O)CC2)C[C@H]1c1ccc(Cl)c(Cl)c1 (racemic) [Example 13, rac-4-Cyano-N-[(3S,4R)-4-(3,4-dichloro-phenyl)-1-(4-methanesulfonyl-piperazine-1-carbonyl)-pyrrolidin-3-yl]-N-methyl-benzamide]"
6,8.93,"CCc1ccc(C(=O)N(C)[C@@H]2CN(C(=O)N3CCN(S(C)(=O)=O)CC3)C[C@H]2c2ccc(Cl)c(Cl)c2)cc1 (racemic) [Example 14, rac-N-[(3S,4R)-4-(3,4-Dichloro-phenyl)-1-(4-methanesulfonyl-piperazine-1-carbonyl)-pyrrolidin-3-yl]-4-ethyl-N-methyl-benzamide]"
7,8.29,"CN(C(=O)c1ccc(OC(F)(F)F)cc1)[C@@H]1CN(C(=O)N2CCN(S(C)(=O)=O)CC2)C[C@H]1c1ccc(Cl)c(Cl)c1 (racemic) [Example 16, rac-N-[(3S,4R)-4-(3,4-Dichloro-phenyl)-1-(4-methanesulfonyl-piperazine-1-carbonyl)-pyrrolidin-3-yl]-N-methyl-4-trifluoromethoxy-benzamide]"
8,7.02,"CN(C(=O)c1cccc(F)c1)[C@@H]1CN(C(=O)N2CCN(S(C)(=O)=O)CC2)C[C@H]1c1ccc(Cl)c(Cl)c1 (racemic) [Example 17, rac-N-[(3S,4R)-4-(3,4-Dichloro-phenyl)-1-(4-methanesulfonyl-piperazine-1-carbonyl)-pyrrolidin-3-yl]-3-fluoro-N-methyl-benzamide]"
9,7.99,"CN(C(=O)c1ccc2occc2c1)[C@@H]1CN(C(=O)N2CCN(S(C)(=O)=O)CC2)C[C@H]1c1ccc(Cl)c(Cl)c1 (racemic) [Example 23, rac-Benzofuran-5-carboxylic acid [(3S,4R)-4-(3,4-dichloro-phenyl)-1-(4-methanesulfonyl-piperazine-1-carbonyl)-pyrrolidin-3-yl]-methyl-amide]"
10,8.76,"CN(C)c1ccc(C(=O)N(C)[C@@H]2CN(C(=O)N3CCN(S(C)(=O)=O)CC3)C[C@H]2c2ccc(Cl)c(Cl)c2)cc1 (racemic) [Example 24, rac-N-[(3S,4R)-4-(3,4-Dichloro-phenyl)-1-(4-methanesulfonyl-piperazine-1-carbonyl)-pyrrolidin-3-yl]-4-dimethylamino-N-methyl-benzamide]"
11,8.22,"Cc1cc(C(=O)N(C)[C@@H]2CN(C(=O)N3CCN(S(C)(=O)=O)CC3)C[C@H]2c2ccc(Cl)c(Cl)c2)ccc1F (racemic) [Example 25, rac-N-[(3S,4R)-4-(3,4-Dichloro-phenyl)-1-(4-methanesulfonyl-piperazine-1-carbonyl)-pyrrolidin-3-yl]-4-fluoro-3,N-dimethyl-benzamide]"
12,8.02,"COc1ccc(C(=O)N(C)[C@@H]2CN(C(=O)N3CCN(S(C)(=O)=O)CC3)C[C@H]2c2ccc(Cl)c(Cl)c2)cc1F (racemic) [Example 26, rac-N-[(3S,4R)-4-(3,4-Dichloro-phenyl)-1-(4-methanesulfonyl-piperazine-1-carbonyl)-pyrrolidin-3-yl]-3-fluoro-4-methoxy-N-methyl-benzamide]"
13,7.79,"CN(C(=O)c1ccc(F)c(F)c1)[C@@H]1CN(C(=O)N2CCN(S(C)(=O)=O)CC2)C[C@H]1c1ccc(Cl)c(Cl)c1 (racemic) [Example 27, rac-N-[(3S,4R)-4-(3,4-Dichloro-phenyl)-1-(4-methanesulfonyl-piperazine-1-carbonyl)-pyrrolidin-3-yl]-3,4-difluoro-N-methyl-benzamide]"
